According to EPA's CvTdb concentration-time database (doi:10.1093/toxsci/kfy020):

Columns and labels:
rat [1] = experiment: concentration in plasma after dosing
rat [2] = experiment: concentration in brain after dosing; conditions: dosed: Imipramine, 10.0000000000 mg/kg, iv, male, Wistar

CCCCNC(=O)NS(=O)(=O)c1ccc(C)cc1 [Tolbutamide]
rat [1], dosed: Tolbutamide, male
Conditions	concentration in plasma [µg/mL]
0.25 h, 20.0000000000 mg/kg, oral, Wistar	79.1
0.5 h, 20.0000000000 mg/kg, oral, Wistar	84.7
1 h, 10.0000000000 mg/kg, iv, Sprague-Dawley	43.4
1 h, 20.0000000000 mg/kg, oral, Wistar	85.9
1.5 h, 10.0000000000 mg/kg, iv, Sprague-Dawley	38.4
2 h, 10.0000000000 mg/kg, iv, Sprague-Dawley	33.4
2 h, 20.0000000000 mg/kg, oral, Wistar	76.4
3 h, 10.0000000000 mg/kg, iv, Sprague-Dawley	29.4
4 h, 10.0000000000 mg/kg, iv, Sprague-Dawley	25.3
4 h, 20.0000000000 mg/kg, oral, Wistar	52.9
5 h, 10.0000000000 mg/kg, iv, Sprague-Dawley	23.1
6 h, 10.0000000000 mg/kg, iv, Sprague-Dawley	19.5
6 h, 20.0000000000 mg/kg, oral, Wistar	35.8
8 h, 20.0000000000 mg/kg, oral, Wistar	26.6
10 min, 10.0000000000 mg/kg, iv, Sprague-Dawley	64.2
12 h, 20.0000000000 mg/kg, oral, Wistar	17.9
20 min, 10.0000000000 mg/kg, iv, Sprague-Dawley	57.1
40 min, 10.0000000000 mg/kg, iv, Sprague-Dawley	49.7

Cc1ncc2n1-c1ccc(Cl)cc1C(c1ccccc1F)=NC2 [Midazolam]
concentration in plasma [µg/mL], rat [1], dosed: Midazolam, male, Sprague-Dawley
Conditions	0.25 h	0.5 h	1 h	1.5 h	2 h	3 h	4 h	5 min	10 min
5.0000000000 mg/kg, iv	0.964	0.57	0.255	0.125	0.0625	0.0161	0.001	2.21	1.08
15.0000000000 mg/kg, oral	0.134	0.163	0.123	0.113	0.0885	0.0377	0.0198	0.0129	0.0711

CNCCCN1c2ccccc2CCc2ccccc21 [desmethylimipramine]
rat [1], dosed: Imipramine, 10.0000000000 mg/kg, iv, male, Wistar
Conditions	concentration in plasma [µg/mL]
1 h	0.29
2 h	0.37
4 h	0.3
5 min	0.44
10 min	0.57

rat [2]
Conditions	concentration in brain [µg/g]
0.5 h	8.62
1 h	1.08
2 h	0.86
4 h	0.72
5 min	1.44
6 h	0.69
10 min	1.8

COC(=O)Nc1nc2ccccc2[nH]1 [Carbendazim]
rat [1], dosed: Carbendazim, 1000.0000000000 mg/kg, oral, male, Sprague-Dawley
Conditions	concentration in plasma [µg/mL]
0.25 h	10
0.5 h	11.6
1 h	14.7
2 h	20.2
4 h	14.1
8 h	4.59
20 h	0.0494

COCCc1ccc(OC[C@H](O)CNC(C)C)cc1 [R-Metoprolol]
rat [1], dosed: Metoprolol, 15.0000000000 mg/kg, oral, male, Wistar
Conditions	concentration in plasma [µg/mL]
1 h	0.0244
1.5 h	0.0101
2 h	0.0122
2 min	0.199
2.5 h	0.00449
3 h	0.00207
4 h	0.00105
4 min	0.38
8 min	0.0846
10 min	0.108
20 min	0.0793
40 min	0.0539
50 min	0.0354

O=C1NC(=O)C(c2ccccc2)(c2ccccc2)N1 [Phenytoin]
rat [1], dosed: Phenytoin, 25.0000000000 mg/kg, iv, duration: 1 min, male, Sprague-Dawley
Conditions	concentration in plasma [µg/mL]
0.25 h	21.5
0.5 h	15.8
0.75 h	12.1
1 h	8.79
1 min	461
1.5 h	4.63
2 h	2.48
3 h	1.5
4 h	0.831

rat [1], dosed: Phenytoin, male
Conditions	concentration in plasma [µg/mL]
0.25 h, 25.0000000000 mg/kg, oral, Sprague-Dawley	4.12
0.25 h, 40.0000000000 mg/kg, iv, Wistar-derived	26.9
0.5 h, 25.0000000000 mg/kg, oral, Sprague-Dawley	3.37
0.5 h, 40.0000000000 mg/kg, iv, Wistar-derived	19.3
0.75 h, 25.0000000000 mg/kg, oral, Sprague-Dawley	2.62
1 h, 25.0000000000 mg/kg, oral, Sprague-Dawley	1.82
1 h, 40.0000000000 mg/kg, iv, Wistar-derived	14.2
1.5 h, 25.0000000000 mg/kg, oral, Sprague-Dawley	1.2
1.5 h, 40.0000000000 mg/kg, iv, Wistar-derived	11.7
2 h, 25.0000000000 mg/kg, oral, Sprague-Dawley	0.885
2 h, 40.0000000000 mg/kg, iv, Wistar-derived	8.97
2.5 h, 40.0000000000 mg/kg, iv, Wistar-derived	7.19
3 h, 25.0000000000 mg/kg, oral, Sprague-Dawley	1.17
3 h, 40.0000000000 mg/kg, iv, Wistar-derived	4.79
3.5 h, 40.0000000000 mg/kg, iv, Wistar-derived	3.02
4 h, 25.0000000000 mg/kg, oral, Sprague-Dawley	1.12
4 h, 40.0000000000 mg/kg, iv, Wistar-derived	2.27
5 min, 40.0000000000 mg/kg, iv, Wistar-derived	54.3
6 h, 25.0000000000 mg/kg, oral, Sprague-Dawley	0.771
8 h, 25.0000000000 mg/kg, oral, Sprague-Dawley	0.759
10 h, 25.0000000000 mg/kg, oral, Sprague-Dawley	0.865
10 min, 40.0000000000 mg/kg, iv, Wistar-derived	33.8
12 h, 25.0000000000 mg/kg, oral, Sprague-Dawley	0.495
20 min, 40.0000000000 mg/kg, iv, Wistar-derived	23.2
40 min, 40.0000000000 mg/kg, iv, Wistar-derived	16.8

CCOP(=S)(OCC)Oc1nc(Cl)c(Cl)cc1Cl [Chlorpyrifos]
concentration in plasma [µg/mL], rat [1], dosed: Chlorpyrifos, oral, male, F344
Conditions	1 h	3 h	5 min	6 h	12 h	20 min
5.0000000000 mg/kg	0.00139	0.03	–	0.0131	0.00181	–
10.0000000000 mg/kg	0.00505	0.109	–	0.0187	0.00176	–
50.0000000000 mg/kg	0.051	0.326	0.000559	0.0793	0.0155	0.00142
100.0000000000 mg/kg	0.246	0.759	0.000665	0.202	0.278	0.00747

CCOc1ccc(NC(C)=O)cc1 [Phenacetin]
rat [1], dosed: Phenacetin, 23.0000000000 mg/kg, iv, male, Sprague-Dawley
Conditions	concentration in plasma [µg/mL]
0.25 h	18.9
0.5 h	16.1
0.75 h	12.2
1 h	9.02
1.5 h	6.63
2 h	4.32
2.5 min	26.3
5 min	24.3
10 min	21.8

CCCC(CCC)C(=O)O [Valproic acid]
concentration in plasma [µg/mL], rat [1], dosed: Valproic acid, iv, Wistar
Conditions	10.0000000000 mg/kg	50.0000000000 mg/kg	100.0000000000 mg/kg
0.017 h	69.9	290	511
0.05 h	49.3	256	427
0.083 h	36.3	228	369
0.167 h	32	199	329
0.25 h	25.7	168	290
0.5 h	14.7	120	250
0.75 h	9.08	72.5	218
1 h	5.1	42.9	171
2 h	1.2	5.19	43.7
3 h	0.494	2.04	4.03
4 h	0.298	0.905	1.59

concentration in plasma [µg/mL], rat [1], dosed: Valproic acid, oral, female, Sprague-Dawley
Conditions	0.25 h	0.5 h	0.75 h	1 h	2 h	4 h
200.0000000000 mg/kg	269	333	246	182	95.6	23
600.0000000000 mg/kg	558	841	755	691	643	294
